According to patent publication US20250099475A1, “METHODS OF TREATING HYPERTENSION BY PERIODIC SUPPRESSION OF ALDOSTERONE SYNTHASE” (Mineralys Therapeutics, Inc., priority 2022, published 2025):

Columns and labels:
[1] = Phase 1 safety and tolerability; type: in vivo, human
Description: A 4-part, Phase 1 randomized, double-blind, placebo-controlled, first-in-human study was performed to determine the safety, tolerability, PK, and PD of single ascending doses (SADs; part 1) and multiple ascending doses (MADs; part 2) of Compound A HBr in healthy participants. The study also assessed whether there were sex (part 3) and age-related (part 4) effects on the PK of a single dose of Compound A HBr. The study was approved by the local independent ethics committee; the BEBO foundation in Assen, Netherlands; and the Central Committee on Research Involving Human Subjects in The Hague, Netherlands; and conducted according to the provisions of the Declaration of Helsinki. Written informed consent was obtained from each study participant before conducting any protocol-related procedures.
Safety measurements (adverse events [AE], safety laboratory, vital signs and electrocardiograms, physical examinations) were summarized and/or listed.

plasma aldosterone (PAC) [2] = assay: Phase 1 part 2 multiple ascending dose: pharmacodynamics, ACTH challenge; type: in vivo, human; conditions: for Aldosterone AUC0-24, mean (SD): Day 7; for return of baseline aldosterone levels by: multiple 120-mg doses
Description: In part 2, Compound A HBr or placebo was administered to a total of 36 healthy Caucasian men aged 19 to 54 years (inclusive) in 3 cohorts of 12 participants each. In each cohort, 9 participants were randomized to receive multiple doses of Compound A HBr and 3 participants were randomized to receive matching placebo. The participants received daily doses in the fed state from Day 1 to Day 7. The doses were administered in an ascending order per cohort. Progression to the next dose level and dose selection were based on available data from part 1 and the preceding dose cohort in part 2 (safety, tolerability, and PD data [up to 48 hours post-final dose] and available PK data [up to 24 hours post-final dose] from a minimum of 10 participants [Compound A HBr n≥7] in the preceding dose cohort). The final dose levels of Compound A HBr for part 2 were 40, 120, and 360 mg. An ACTH challenge test was performed on Day −2 and on Day 6 to evaluate Compound A HBr selectivity for aldosterone synthesis. Plasma concentrations of aldosterone and 11-deoxycortisol and serum concentrations of cortisol and 11-DOC were measured pre-ACTH dose and 30 and 60 minutes post-ACTH dose on Day −2 and Day 6.
(§1) Plasma concentrations of aldosterone, 11-deoxycortisol, and ACTH; renin activity; renin concentration; and serum concentrations of cortisol and 11-DOC were measured in all parts of the study. The amount of aldosterone, cortisol, sodium, and potassium excreted and the urinary log10 (10×Na^+/K^+) ratio were listed per collection interval.
(§2) PD parameters were derived by non-compartmental analysis using WinNonlin® Professional (version 6.3). AUC0-24 was determined where possible for plasma aldosterone and serum cortisol.
(§3) Log-transformed change from baseline (Day 1, pre-dose) at 24 hours and log-transformed change from baseline at 22 hours on Day 1 (where baseline is Day −1, 22 hours) in plasma aldosterone and serum cortisol were analyzed using a linear model with dose group (each Compound A HBr dose and pooled placebo) as a fixed effect with the corresponding Day 1 pre-dose as a covariate. The LSM difference between each Compound A HBr dose compared with placebo was obtained from the model with the 90% CI and then back-transformed (exponentiated) to obtain estimates of the ratio of adjusted geometric means and 90% CI. Log-transformed change from baseline (time-matched) from 0 to 24 hours post-dose in plasma aldosterone and serum cortisol as repeated measures was analyzed using a linear mixed model with dose group (each active Compound A HBr dose and pooled placebo) as fixed effects, corresponding time-matched values on Day −1 as covariate, and unstructured covariance. The pre-dose time point on Day 1 was used as the 24-hour time point on Day −1. The LSM difference between each Compound A HBr dose compared with placebo was obtained from the model together with the 90% CI, and then back-transformed to obtain estimates of the ratio of adjusted geometric means and 90% CIs. The calculated AUC parameters were analyzed using a linear model. The log-transformed parameter of interest was the dependent variable with dose group (each Compound A HBr dose and pooled placebo) as the fixed effect and log-transformed AUC0-24 on Day −1 as the covariate. The LSM difference between each Compound A HBr dose compared with placebo and 90% CIs was calculated and then back-transformed to obtain estimates of the ratio of adjusted geometric means and 90% CIs.

plasma aldosterone (PAC) [3] = assay: Phase 1 part 1 single ascending dose: pharmacodynamics; type: in vivo, human; conditions: for PAC reduction compared with placebo: 24 hours post-dose; for Aldosterone AUC0-24, mean (SD): Day 1; for return of baseline aldosterone levels by: single 100-mg doses; for effect on cortisol: single ascending doses
Description: In part 1, Compound A HBr or placebo was administered to 64 healthy Caucasian men aged 18 to 55 years (inclusive) in 8 cohorts of 8 participants each. In each cohort, 6 participants were randomized to receive a single dose of Compound A HBr and 2 participants were randomized to receive matching placebo. All cohorts included 2 sentinel participants of whom 1 received Compound A HBr and 1 received matching placebo. The remaining 6 participants, of whom 5 received Compound A HBr and 1 received placebo, were dosed ≥24 hours following the sentinel participants. The dosing cohorts were 5, 10, 20, 50, 100, 200, 400, and 800 mg. Doses were administered in an ascending order per cohort, with a minimum 10-day interval between consecutive dose levels. Participants received a single dose of Compound A HBr or placebo in the fasted state.
as §1, §2, §3

hERG channel = target: T1, hERG channel (Homo sapiens, UniProt Q12809); assay: Effects on hERG current, whole-cell patch-clamp in HEK293 cells; type: cell-based
T1 construct: expressed in transfected cells; host or cells: HEK293 cells stably expressing hERG
T1 sequence (Q12809 whole entry): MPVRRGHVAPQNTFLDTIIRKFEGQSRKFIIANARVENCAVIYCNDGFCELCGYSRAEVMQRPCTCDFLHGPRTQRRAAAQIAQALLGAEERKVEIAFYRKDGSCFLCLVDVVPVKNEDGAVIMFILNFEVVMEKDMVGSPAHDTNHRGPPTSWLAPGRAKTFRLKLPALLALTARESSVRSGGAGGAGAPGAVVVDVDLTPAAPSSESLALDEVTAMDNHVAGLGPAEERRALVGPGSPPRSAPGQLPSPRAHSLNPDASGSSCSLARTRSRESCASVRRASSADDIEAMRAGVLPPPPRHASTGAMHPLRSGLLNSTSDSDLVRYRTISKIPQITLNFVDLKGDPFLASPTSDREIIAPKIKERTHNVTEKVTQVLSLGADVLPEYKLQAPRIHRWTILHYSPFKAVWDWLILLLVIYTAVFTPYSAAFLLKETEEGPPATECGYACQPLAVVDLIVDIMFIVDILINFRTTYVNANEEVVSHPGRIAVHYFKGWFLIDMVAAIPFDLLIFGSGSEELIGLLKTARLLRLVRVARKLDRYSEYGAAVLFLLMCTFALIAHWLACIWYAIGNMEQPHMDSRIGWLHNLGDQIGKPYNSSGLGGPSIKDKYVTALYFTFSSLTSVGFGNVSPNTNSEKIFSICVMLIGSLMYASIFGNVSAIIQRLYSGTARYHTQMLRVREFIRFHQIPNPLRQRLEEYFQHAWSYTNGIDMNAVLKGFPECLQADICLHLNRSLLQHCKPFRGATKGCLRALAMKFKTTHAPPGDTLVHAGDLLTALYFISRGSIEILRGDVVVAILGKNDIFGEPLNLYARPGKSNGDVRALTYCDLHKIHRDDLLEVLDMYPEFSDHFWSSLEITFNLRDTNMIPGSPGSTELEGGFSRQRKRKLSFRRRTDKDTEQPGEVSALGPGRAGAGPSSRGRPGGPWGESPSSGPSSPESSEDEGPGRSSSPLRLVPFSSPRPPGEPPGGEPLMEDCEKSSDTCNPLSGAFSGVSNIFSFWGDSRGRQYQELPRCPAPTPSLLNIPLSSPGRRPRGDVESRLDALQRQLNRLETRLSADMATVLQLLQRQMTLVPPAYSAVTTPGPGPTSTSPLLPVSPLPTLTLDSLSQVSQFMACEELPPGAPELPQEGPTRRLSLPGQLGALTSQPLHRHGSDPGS
Description: The effects of Compound A on the human ether-à-go-go-related gene (hERG) current were evaluated using the whole-cell patch-clamp method in human embryonic kidney (HEK293) cells stably expressing the hERG channel. Cells were treated with Compound A at concentrations of 1, 3, 10, and 30 μmol/L, positive control (E-4031) at 0.1 μmol/L, or vehicle (0.3 v/v % dimethyl sulfoxide) for 10 minutes.

In the case of `CC(=O)N[C@H]1CC[C@H](NC(=O)CN2CCN(c3nncc(-c4ccc(C)cc4)n3)CC2)CC1` [Compound A HBr], the “dizziness (of mild intensity), participants” value ([1]; across all cohorts) is reported as 9 (10.3%), the “serious AEs” value ([1]; healthy participants, all parts) is reported as “No serious AEs” and the “Aldosterone AUC0-24, mean (SD)” value (plasma aldosterone (PAC) [2]; 40 mg once daily) is reported as 1343 (702) ng × h/dL. For the same compound, the “Aldosterone AUC0-24, mean (SD)” value (plasma aldosterone (PAC) [2]; 120 mg once daily) was 1013 (312) ng × h/dL, the “Aldosterone AUC0-24, mean (SD)” value (plasma aldosterone (PAC) [2]; 360 mg once daily) was 771 (440) ng × h/dL and the “11-DOC and 11-deoxycortisol concentrations after ACTH stimulation” value (plasma aldosterone (PAC) [2]; 360 mg, Day 6, compared to placebo) was “trend in increase”. The “reduction in AUC0-24 for PAC compared to placebo” value (plasma aldosterone (PAC) [2]; 360 mg, after seven once-daily doses) was “approximately −50%”, the ACTH-stimulated cortisol response (plasma aldosterone (PAC) [2]; Day 6, all multiple dose levels) was “no effect on the cortisol response” and the ACTH-stimulated aldosterone response (plasma aldosterone (PAC) [2]; Day 6, all multiple dose levels, compared to placebo) was “completely blunted”. For the same compound, the “changes in serum cortisol and plasma 11-deoxycortisol concentrations” value (plasma aldosterone (PAC) [2]; during multiple dosing) was “No relevant changes from baseline”, the “return of baseline aldosterone levels by” value (plasma aldosterone (PAC) [2]) was at most 16 h and the “PAC reduction compared with placebo” value (plasma aldosterone (PAC) [3]; single doses of 100 and 200 mg) was “approximately −40%”. The “PAC reduction compared with placebo” value (plasma aldosterone (PAC) [3]; single doses of 400 and 800 mg) was “approximately −70%”, the “Aldosterone AUC0-24, mean (SD)” value (plasma aldosterone (PAC) [3]; single 5 mg) was 1436 (531) ng × h/dL and the “Aldosterone AUC0-24, mean (SD)” value (plasma aldosterone (PAC) [3]; single 10 mg) was 1075 (418) ng × h/dL. The “Aldosterone AUC0-24, mean (SD)” value (plasma aldosterone (PAC) [3]; single 20 mg) was 911 (286) ng × h/dL, the “Aldosterone AUC0-24, mean (SD)” value (plasma aldosterone (PAC) [3]; single 50 mg) was 731 (247) ng × h/dL and the “Aldosterone AUC0-24, mean (SD)” value (plasma aldosterone (PAC) [3]; single 100 mg) was 562 (279) ng × h/dL. For the same compound, the “Aldosterone AUC0-24, mean (SD)” value (plasma aldosterone (PAC) [3]; single 200 mg) was 587 (115) ng × h/dL, the “Aldosterone AUC0-24, mean (SD)” value (plasma aldosterone (PAC) [3]; single 400 mg) was 403 (122) ng × h/dL and the “Aldosterone AUC0-24, mean (SD)” value (plasma aldosterone (PAC) [3]; single 800 mg) was 347 (108) ng × h/dL. The “PAC returned to values near baseline within” value (plasma aldosterone (PAC) [3]; single 5-50 mg) was at most 24 hours post-dose, the “duration of PAC reduction” value (plasma aldosterone (PAC) [3]; single 100-800 mg) was “sustained until 24 hours post-dose” and the “return of baseline aldosterone levels by” value (plasma aldosterone (PAC) [3]) was at most 16 h. The effect on cortisol (plasma aldosterone (PAC) [3]) was “no dose-related effect on cortisol” and the “decrease of AUC0-24 for PAC vs placebo” value (plasma aldosterone (PAC) [3]; single doses ranging from 10 to 800 mg) was −36% to −77.

For `CC(=O)N[C@H]1CC[C@H](NC(=O)CN2CCN(c3nncc(-c4ccc(C)cc4)n3)CC2)CC1` [Compound A], the tolerability ([1]; single doses up to 800 mg fasting, once-daily up to 360 mg fed, healthy men) was “well-tolerated”, the IC50 (hERG channel) was over 30 µM and the inhibition at 10 min, 30 μmol/L (hERG channel; human, HEK293 cells stably expressing the hERG channel, 30 μmol/L) was 27%. For the same compound, the “accumulation of serum 11-DOC” value (plasma aldosterone (PAC) [2]; 40- and 120-mg daily cohorts) was “did not exceed the normal range”, the “accumulation of serum 11-DOC” value (plasma aldosterone (PAC) [2]; 360-mg daily dose cohort) was “much more dramatic increase in 11-DOC” and the “maximum PAC suppression maintained for” value (plasma aldosterone (PAC) [2]; MAD, doses of 40, 120, and 360 mg) was “approximately 12 hours”. The “return of baseline aldosterone levels at” value (plasma aldosterone (PAC) [2]; daily dosing) was about 16 h, the “return of baseline aldosterone levels by” value (plasma aldosterone (PAC) [2]) was at most 16 h and the “serum 11-DOC, plasma renin activity, and potassium concentrations” value (plasma aldosterone (PAC) [2]; once-daily administration, all dose levels compared to placebo) was “appeared to increase”. For the same compound, the “rise in serum potassium” value (plasma aldosterone (PAC) [2]; within 2 days of initiation, all 3 dose cohorts (part 2)) was “approximately 0.5 mmol/L”, the “urinary log10 (10×Na+/K+) ratio” value (plasma aldosterone (PAC) [3]; SAD, doses of ≥10 mg) was “produced an increase” and the “PAC (AUC0-24) reduced by” value (plasma aldosterone (PAC) [3]; single 100- to 200-mg doses) was “up to 40%”. For the same compound, the “return of baseline aldosterone levels by” value (plasma aldosterone (PAC) [3]) was at most 16 h, the “PAC (AUC0-24) reduced by” value (plasma aldosterone (PAC) [3]; single 400- to 800-mg doses) was “up to 70%” and the effect on cortisol (plasma aldosterone (PAC) [3]) was “no meaningful effect on serum cortisol levels”.
